Assays:
[1] = biological target: T1, ATP-binding cassette sub-family C member 4 (Homo sapiens, UniProt O15439); assay: Inhibition of human MRP4 overexpressed in Sf9 cell membrane vesicles assessed as uptake of [3H]-estradiol-17beta-D-glucuronide in presence of ATP and GSH measured after 20 mins by membrane vesicle transport assay; format: ADME, cell-based
T1 sequence (O15439 whole entry): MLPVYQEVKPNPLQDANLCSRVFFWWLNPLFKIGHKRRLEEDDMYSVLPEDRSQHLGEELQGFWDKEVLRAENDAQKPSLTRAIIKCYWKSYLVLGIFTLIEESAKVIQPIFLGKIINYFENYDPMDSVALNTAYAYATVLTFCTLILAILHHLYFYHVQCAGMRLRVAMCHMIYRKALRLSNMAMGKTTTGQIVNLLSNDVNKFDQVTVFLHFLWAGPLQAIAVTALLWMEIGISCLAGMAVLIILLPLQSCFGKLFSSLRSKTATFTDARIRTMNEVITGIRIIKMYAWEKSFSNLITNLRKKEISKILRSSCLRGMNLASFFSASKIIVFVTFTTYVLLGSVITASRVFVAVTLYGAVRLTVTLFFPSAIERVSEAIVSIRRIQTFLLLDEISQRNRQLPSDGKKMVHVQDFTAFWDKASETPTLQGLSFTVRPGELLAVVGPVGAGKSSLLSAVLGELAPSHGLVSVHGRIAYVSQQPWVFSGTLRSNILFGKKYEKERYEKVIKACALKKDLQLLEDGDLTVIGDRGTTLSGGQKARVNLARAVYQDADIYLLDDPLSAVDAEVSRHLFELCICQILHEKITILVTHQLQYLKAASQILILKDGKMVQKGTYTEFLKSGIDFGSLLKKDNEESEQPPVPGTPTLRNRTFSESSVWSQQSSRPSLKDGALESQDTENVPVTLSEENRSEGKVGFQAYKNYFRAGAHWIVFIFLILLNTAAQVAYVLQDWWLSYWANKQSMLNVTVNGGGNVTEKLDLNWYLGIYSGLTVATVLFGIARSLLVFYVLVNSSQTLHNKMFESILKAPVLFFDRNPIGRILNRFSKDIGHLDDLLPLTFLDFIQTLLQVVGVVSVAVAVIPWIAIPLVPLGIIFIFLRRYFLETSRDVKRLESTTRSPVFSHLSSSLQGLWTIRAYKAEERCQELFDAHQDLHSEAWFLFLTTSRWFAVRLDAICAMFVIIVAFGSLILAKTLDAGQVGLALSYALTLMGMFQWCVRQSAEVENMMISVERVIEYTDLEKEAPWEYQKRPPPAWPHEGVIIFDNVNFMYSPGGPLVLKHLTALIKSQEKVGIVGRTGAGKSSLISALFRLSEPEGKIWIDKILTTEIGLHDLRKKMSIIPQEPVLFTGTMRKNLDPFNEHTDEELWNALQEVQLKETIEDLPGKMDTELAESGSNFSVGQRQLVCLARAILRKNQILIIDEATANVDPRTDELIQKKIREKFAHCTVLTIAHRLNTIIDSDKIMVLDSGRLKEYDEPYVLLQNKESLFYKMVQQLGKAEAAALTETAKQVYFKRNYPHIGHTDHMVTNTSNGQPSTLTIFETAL

[2] = AUC in human at 750 mg, po TID or 1250 mg, po BID after 12 hrs; format: ADME, organism-based; parameters: dose 750 mg, time < 12 hr, route oral; conditions: in vivo
Homo sapiens [3] = assay: Drug concentration at steady state in human at 750 mg, po TID or 1250 mg, po BID after 12 hrs; format: ADME, organism-based; conditions: in vivo
[4] = Ratio of drug concentration at steady state in human at 750 mg, po TID or 1250 mg, po BID after 12 hrs to IC50 for human BSEP overexpressed in Sf9 insect cells; format: ADME, organism-based; conditions: in vivo
[5] = Ratio of drug concentration at steady state in human at 750 mg, po TID or 1250 mg, po BID after 12 hrs to IC50 for human MRP4 overexpressed in Sf9 insect cells; format: ADME, organism-based; conditions: in vivo
[6] = biological target: ATP-binding cassette sub-family C member 3 (Homo sapiens, UniProt O15438); assay: Inhibition of human MRP3 overexpressed in Sf9 insect cell membrane vesicles assessed as uptake of [3H]-estradiol-17beta-D-glucuronide in presence of ATP and GSH measured after 10 mins by membrane vesicle transport assay; format: ADME, cell-based
Sequence of ATP-binding cassette sub-family C member 3 (O15438 whole entry): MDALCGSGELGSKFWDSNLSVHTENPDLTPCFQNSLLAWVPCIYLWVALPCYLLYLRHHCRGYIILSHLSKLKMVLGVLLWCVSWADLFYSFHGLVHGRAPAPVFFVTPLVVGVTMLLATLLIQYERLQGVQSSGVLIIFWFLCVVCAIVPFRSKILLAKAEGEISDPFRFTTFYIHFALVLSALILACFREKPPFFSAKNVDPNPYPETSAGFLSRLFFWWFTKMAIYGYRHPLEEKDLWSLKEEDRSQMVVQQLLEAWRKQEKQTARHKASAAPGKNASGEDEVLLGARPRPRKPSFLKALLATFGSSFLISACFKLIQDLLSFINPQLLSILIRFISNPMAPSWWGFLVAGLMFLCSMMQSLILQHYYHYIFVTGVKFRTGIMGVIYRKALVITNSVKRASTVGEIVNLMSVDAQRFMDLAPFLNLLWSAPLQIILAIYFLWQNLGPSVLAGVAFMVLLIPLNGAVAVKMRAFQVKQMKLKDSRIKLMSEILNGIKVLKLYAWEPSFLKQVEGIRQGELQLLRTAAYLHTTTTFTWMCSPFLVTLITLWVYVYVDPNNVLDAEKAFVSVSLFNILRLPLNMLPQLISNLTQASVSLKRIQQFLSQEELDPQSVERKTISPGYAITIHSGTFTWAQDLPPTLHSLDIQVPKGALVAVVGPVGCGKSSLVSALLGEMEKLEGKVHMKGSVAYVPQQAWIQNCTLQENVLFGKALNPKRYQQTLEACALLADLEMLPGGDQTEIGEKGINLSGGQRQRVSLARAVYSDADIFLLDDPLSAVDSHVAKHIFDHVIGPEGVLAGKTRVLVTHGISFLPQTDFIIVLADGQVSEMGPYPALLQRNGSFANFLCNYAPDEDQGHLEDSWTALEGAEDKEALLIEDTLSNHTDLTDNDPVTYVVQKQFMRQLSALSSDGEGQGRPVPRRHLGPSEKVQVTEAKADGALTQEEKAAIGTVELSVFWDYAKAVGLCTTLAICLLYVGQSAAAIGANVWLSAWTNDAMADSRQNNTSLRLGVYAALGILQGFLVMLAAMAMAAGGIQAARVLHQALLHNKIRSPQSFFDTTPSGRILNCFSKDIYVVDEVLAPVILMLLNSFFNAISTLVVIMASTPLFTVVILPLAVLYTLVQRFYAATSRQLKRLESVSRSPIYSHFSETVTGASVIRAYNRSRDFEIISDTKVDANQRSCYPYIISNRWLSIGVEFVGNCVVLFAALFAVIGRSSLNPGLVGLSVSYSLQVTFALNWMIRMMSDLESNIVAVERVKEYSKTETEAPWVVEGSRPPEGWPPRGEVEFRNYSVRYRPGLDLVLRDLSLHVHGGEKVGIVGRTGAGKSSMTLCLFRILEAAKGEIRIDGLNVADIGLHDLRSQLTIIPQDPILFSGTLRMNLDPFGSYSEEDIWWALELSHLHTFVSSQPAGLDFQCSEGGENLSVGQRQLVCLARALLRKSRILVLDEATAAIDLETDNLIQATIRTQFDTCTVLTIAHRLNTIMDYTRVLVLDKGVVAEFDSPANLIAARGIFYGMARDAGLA

[7] = biological target: ATP-binding cassette sub-family C member 2 (Homo sapiens, UniProt Q92887); assay: Inhibition of human MRP2 overexpressed in Sf9 cell membrane vesicles assessed as uptake of [3H]-estradiol-17beta-D-glucuronide in presence of ATP and GSH measured after 20 mins by membrane vesicle transport assay
Sequence of ATP-binding cassette sub-family C member 2 (Q92887 whole entry): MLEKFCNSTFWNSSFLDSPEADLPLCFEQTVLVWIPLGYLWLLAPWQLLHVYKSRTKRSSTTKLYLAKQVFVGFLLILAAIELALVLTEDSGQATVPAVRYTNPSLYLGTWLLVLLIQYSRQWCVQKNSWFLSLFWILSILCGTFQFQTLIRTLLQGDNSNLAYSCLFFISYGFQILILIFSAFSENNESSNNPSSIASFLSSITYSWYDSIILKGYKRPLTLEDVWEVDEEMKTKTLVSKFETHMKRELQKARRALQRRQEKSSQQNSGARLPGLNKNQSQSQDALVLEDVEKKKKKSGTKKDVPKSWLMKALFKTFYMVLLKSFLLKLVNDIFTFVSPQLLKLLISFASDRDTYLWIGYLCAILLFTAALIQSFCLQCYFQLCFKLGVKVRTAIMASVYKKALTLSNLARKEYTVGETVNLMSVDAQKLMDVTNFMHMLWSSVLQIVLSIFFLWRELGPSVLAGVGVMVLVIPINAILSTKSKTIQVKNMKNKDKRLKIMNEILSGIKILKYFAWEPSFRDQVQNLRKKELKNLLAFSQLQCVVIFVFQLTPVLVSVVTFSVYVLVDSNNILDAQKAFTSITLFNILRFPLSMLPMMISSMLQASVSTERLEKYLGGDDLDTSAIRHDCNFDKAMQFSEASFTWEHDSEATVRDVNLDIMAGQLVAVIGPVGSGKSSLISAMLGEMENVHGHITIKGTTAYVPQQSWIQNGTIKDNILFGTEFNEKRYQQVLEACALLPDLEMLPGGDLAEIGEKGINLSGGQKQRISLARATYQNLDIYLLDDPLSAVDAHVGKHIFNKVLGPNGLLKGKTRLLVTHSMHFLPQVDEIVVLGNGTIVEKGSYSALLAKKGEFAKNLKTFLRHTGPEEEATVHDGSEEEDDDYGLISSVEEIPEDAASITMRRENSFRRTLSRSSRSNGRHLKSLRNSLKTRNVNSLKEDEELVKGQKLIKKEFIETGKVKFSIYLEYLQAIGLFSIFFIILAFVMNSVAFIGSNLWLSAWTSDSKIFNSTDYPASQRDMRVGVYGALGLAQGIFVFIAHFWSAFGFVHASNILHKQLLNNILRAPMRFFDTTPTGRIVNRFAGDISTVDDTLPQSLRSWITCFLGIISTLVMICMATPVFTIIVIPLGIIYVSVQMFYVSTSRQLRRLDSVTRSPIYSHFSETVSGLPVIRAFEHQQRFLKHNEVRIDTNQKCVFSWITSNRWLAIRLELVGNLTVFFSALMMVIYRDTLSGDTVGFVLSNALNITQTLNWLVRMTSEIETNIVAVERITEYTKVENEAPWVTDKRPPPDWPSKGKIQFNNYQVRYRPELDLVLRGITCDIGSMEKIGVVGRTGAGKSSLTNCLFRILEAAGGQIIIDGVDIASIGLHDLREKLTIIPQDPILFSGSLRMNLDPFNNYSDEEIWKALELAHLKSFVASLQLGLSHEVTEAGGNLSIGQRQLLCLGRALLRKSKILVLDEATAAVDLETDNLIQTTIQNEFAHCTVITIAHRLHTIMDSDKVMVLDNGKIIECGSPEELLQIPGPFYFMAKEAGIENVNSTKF

[8] = AUC in human at 100 mg, po BID; format: ADME, organism-based; conditions: in vivo
[9] = Ratio of drug concentration at steady state in human at 100 mg, po BID to IC50 for human MRP3 overexpressed in Sf9 insect cells; format: ADME, organism-based; conditions: in vivo
[10] = Ratio of drug concentration at steady state in human at 100 mg, po BID to IC50 for human BSEP overexpressed in Sf9 insect cells; format: ADME, organism-based; conditions: in vivo
[11] = Ratio of AUC in liver to plasma in Sprague-Dawley rat at 1500 mg/kg, po administered as single oral gavage measured after 24 hrs by Liquid chromatography/tandem mass spectrometry; format: ADME, organism-based; conditions: liver and plasma, read-out: Ratio AUC
Bile salt export pump = Bile salt export pump (Homo sapiens, UniProt O95342); assay: Inhibition of human BSEP overexpressed in Sf9 cell membrane vesicles assessed as uptake of [3H]-taurocholate in presence of ATP measured after 15 to 20 mins by membrane vesicle transport assay; format: ADME, cell-based
Sequence of Bile salt export pump (O95342 whole entry): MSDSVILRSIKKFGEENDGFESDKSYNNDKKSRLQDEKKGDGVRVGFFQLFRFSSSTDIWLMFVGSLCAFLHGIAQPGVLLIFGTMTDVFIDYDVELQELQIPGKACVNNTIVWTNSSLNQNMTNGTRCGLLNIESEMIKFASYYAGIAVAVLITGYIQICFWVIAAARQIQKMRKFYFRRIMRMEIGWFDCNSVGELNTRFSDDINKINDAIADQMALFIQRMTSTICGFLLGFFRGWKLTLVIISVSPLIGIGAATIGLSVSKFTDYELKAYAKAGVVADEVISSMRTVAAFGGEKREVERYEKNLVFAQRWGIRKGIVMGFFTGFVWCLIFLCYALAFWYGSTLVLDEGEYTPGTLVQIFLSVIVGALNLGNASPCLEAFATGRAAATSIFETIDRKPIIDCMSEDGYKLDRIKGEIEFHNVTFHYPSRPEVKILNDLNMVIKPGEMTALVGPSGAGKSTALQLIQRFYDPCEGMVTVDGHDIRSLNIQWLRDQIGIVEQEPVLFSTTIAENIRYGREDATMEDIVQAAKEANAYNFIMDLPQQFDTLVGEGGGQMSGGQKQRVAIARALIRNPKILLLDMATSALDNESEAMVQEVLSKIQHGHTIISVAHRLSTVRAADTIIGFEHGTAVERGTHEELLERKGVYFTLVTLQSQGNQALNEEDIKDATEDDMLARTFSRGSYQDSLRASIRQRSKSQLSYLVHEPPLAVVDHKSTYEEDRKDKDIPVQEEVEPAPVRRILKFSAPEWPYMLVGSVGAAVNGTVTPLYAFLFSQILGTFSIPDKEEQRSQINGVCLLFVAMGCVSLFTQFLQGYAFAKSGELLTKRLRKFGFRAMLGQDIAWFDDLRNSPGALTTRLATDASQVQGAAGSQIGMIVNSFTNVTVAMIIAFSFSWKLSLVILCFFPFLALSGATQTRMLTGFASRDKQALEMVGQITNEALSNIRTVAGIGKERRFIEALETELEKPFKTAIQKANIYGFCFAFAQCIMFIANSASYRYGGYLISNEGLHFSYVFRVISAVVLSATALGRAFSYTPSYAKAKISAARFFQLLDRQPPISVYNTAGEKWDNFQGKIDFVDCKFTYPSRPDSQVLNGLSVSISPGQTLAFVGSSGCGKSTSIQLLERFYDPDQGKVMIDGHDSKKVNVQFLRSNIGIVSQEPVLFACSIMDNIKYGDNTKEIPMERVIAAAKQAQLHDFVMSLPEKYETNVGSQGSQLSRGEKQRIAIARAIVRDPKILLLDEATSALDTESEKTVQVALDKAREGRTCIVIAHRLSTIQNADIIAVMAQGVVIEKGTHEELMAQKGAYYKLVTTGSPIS

Homo sapiens [12] = assay: Drug concentration at steady state in human at 100 mg, po BID; format: ADME, organism-based; conditions: in vivo
[13] = Ratio of drug concentration at steady state in human at 100 mg, po BID to IC50 for human MRP4 overexpressed in Sf9 insect cells; format: ADME, organism-based; conditions: in vivo

Row | SMILES | IC50 [1] [µM] | AUC at 12 h [2] [µM·h] | Css (Homo sapiens [3]) [µM] | Ratio [4] | Ratio [5] | IC50 [6] [µM] | IC50 [7] [µM] | AUC [8] [ng·h/mL] | Ratio [9] | Ratio [10] | Kp at 24 h [11] | IC50 (Bile salt export pump) [µM] | Css (Homo sapiens [12]) [µM] | Ratio [13]
1 | Cc1c(O)cccc1C(=O)N[C@@H](CSc1ccccc1)[C@H](O)CN1C[C@H]2CCCC[C@H]2C[C@H]1C(=O)NC(C)(C)C | 97 | 77.8 | 6.482 | 0.549 | 0.067 | > 133 | > 133 | – | – | – | – | – | – | –
2 | CCCCNC(=O)c1ccc(Oc2ccc(CC(=O)O)cc2OC)c(NS(=O)(=O)c2ccc(Cl)cc2Cl)c1 | 13.5 | – | – | – | – | 1.1 | – | 32800 | 2.2 | 0.21 | 27 | 11.5 | 2.4 | 0.18

From ChEMBL document CHEMBL4028801, “A multifactorial approach to hepatobiliary transporter assessment enables improved therapeutic compound development” (Toxicol Sci, 2013)
